Measurements as given in patent publication US20240034753A1, “THERAPEUTIC PEPTIDES” (COHBAR, INC., priority 2020, published 2024).
Ends that are not written are not given here.

What was measured:
[1] = test system: SH-SY5Y Neuroblastoma Cells; assay: ATP levels (CellTiter-Glo); format: cell-based, human; details: peptide 10 μM, 18-20 hours, relative to 0.1% DMSO treated control
Experimental: The effect of the peptides on cellular metabolism can be assessed using an assay of ATP levels in cultured cells such as human neuroblastoma cells. Peptides were initially prepared as 10 mM stock in DMSO and used at a final concentration of 10 μM (0.1% DMSO). […] CellTiter-Glo® Assay kit was purchased from Promega. SH-SY5Y human bone marrow neuroblastoma cell line was purchased from American Type Culture Collection (Manassas, VA) and licensed from Memorial Sloan-Kettering Cancer Center (New York, NY). SH-SY5Y cells were grown in DMEM/F12 medium supplemented with 10% FBS with 100 IU/ml penicillin and 100 μg/ml streptomycin. Cultures were maintained at 37° C. in a humidified atmosphere of 5% CO2/95% air. SH-SY5Y cells were seeded at 30,000 cells per well on 96-well plates. […] ATP levels were determined using a CellTiter-Glo Assay kit (Promega) according to the manufacturer's instructions. Luminescence for each sample well on the plate was measured using a Cytation 3 plate reader (BioTek, Winooski, VT). Activity was calculated relative to 0.1% DMSO treated control. The relative standard deviation of the result for the 0.1% DMSO treated control was <5%.

C2C12 Mouse Myoblasts = assay: Glucose utilization (glucose remaining in medium); format: cell-based; details: peptide 10 μM, 18-22 hours, relative to 0.1% DMSO treated control cells
Experimental: The effect of the peptides on glucose metabolism can be assessed using an assay of glucose utilization in cultured cells such as mouse myoblasts. Peptides were initially prepared as 10 mM stock in DMSO and used at a final concentration of 10 μM (0.1% DMSO). C2C12 mouse myoblast cell line was purchased from American Type Culture Collection (Manassas, VA). C2C12 cultures were maintained at 37° C. in a humidified atmosphere of 5% CO2/95% air with medium changes every second day. C2C12 cells were grown in DMEM (1 g/L glucose) supplemented with 10% FBS with 100 IU/ml penicillin and 100 μg/ml streptomycin. C2C12 cells were seeded at 7,000 cells per well on 96-well plates and cultured to confluence. Once the cell reached confluence the media was changed to DMEM (1 g/L glucose) supplemented with 2% HS with 100 IU/ml penicillin and 100 μg/ml streptomycin and maintained at 37° C. in a humidified atmosphere of 5% CO2/95% air. 5 days post-induction of differentiation fresh DMEM (1 g/L glucose) supplemented with 2% HS with 100 IU/ml penicillin and 100 μg/ml streptomycin was added to cultures. Cells were maintained at 37° C. in a humidified atmosphere of 5% CO2 and 95% air for 5 hours. After 5 hours test peptides at 10 μM or controls (0.5 mM or 1 mM metformin in 1% DMSO) prepared in fresh differentiation medium were added to cells and the cultures were maintained at 37° C. in a humidified atmosphere of 5% CO2/95% air for 18-22 hours. At the end of the incubation culture media was removed from the cells and the remaining glucose concentration was measured using a Glucose Assay kit (Abcam) according to the manufacturer's instructions, using a Cytation 3 plate reader at 570 nm (BioTek, Winooski, VT). Glucose concentrations in the medium were calculated relative to 0.1% DMSO treated control cells. The relative standard deviation of the result for the 0.1% DMSO treated control was <20%. Metformin was used as a positive control for reduction of glucose levels (increased glucose utilization glucose levels for treatment with metformin (1 mM) treatment were <20% of the 0.1% DMSO treated control value. The results are reported in Table 11.

Row | Sequence | ATP Levels, % Control [1] [%] | Glucose Utilization (glucose concentration in medium), Percent of Untreated Control (C2C12 Mouse Myoblasts) [%]
1 | MMAGVIRGVLVL [compound 7] | 103.9 | 128.3
2 | MRQWILHNGGMSFFC [compound 12] | 101.0 | 113.6
3 | MRRRMFSCYLY [compound 17] | 104.6 | 121.7
4 | RQWILHNGGMSFFC [compound 13] | 101.2 | 115.0
5 | RRRMFSCYLY [compound 18] | 108.6 | 124.0
